The source made the active and inactive calls. No cut-off for these calls is given here.
Legend:
LNCaP [1] = experiment: Down regulation of BCL2 gene expression in human LNCAP cells at 500 ug/ml measured after 24 hrs by RT profile PCR analysis relative to control; format: functional
LNCaP [2] = experiment: Induction of apoptosis in human LNCAP cells assessed as increase in FAS expression at 500 ug/ml measured after 24 hrs in presence of topotecan by Western blot analysis; format: functional, cell-based
LNCaP [3] = experiment: Induction of apoptosis in human LNCAP cells assessed as increase in caspase 9 activity at 500 ug/ml measured after 24 hrs by Ac-LEHD-pNA substrate based colorimetric assay; format: functional, cell-based
[4] = Drug uptake in cytoplasm of human LNCAP cells at 250 to 500 ug/mL incubated for 12 hrs followed by single compound washout by fluorescence microscopic analysis; format: ADME, subcellular
LNCaP [5] = experiment: Up regulation of TNFRSF10A gene expression in human LNCAP cells at 500 ug/ml measured after 24 hrs by RT profile PCR analysis relative to control; format: functional
LNCaP [6] = experiment: Induction of apoptosis in human LNCAP cells assessed as down regulation of Mcl-1 expression at 500 ug/ml measured after 24 hrs in presence of topotecan by Western blot analysis; format: functional, cell-based
LNCaP [7] = experiment: Induction of apoptosis in human LNCAP cells assessed as increase in cleaved PARP expression at 500 ug/ml measured after 24 hrs in presence of topotecan by Western blot analysis; format: functional, cell-based
LNCaP [8] = experiment: Induction of apoptosis in human LNCAP cells assessed as decrease in uncleaved PARP expression at 500 ug/ml measured after 24 hrs in presence of topotecan by Western blot analysis; format: functional, cell-based
LNCaP [9] = experiment: Down regulation of AKT1 gene expression in human LNCAP cells at 500 ug/ml measured after 24 hrs by RT profile PCR analysis relative to control; format: functional
LNCaP [10] = experiment: Induction of apoptosis in human LNCAP cells assessed as up regulation of pro-apoptotic protein Apaf-1 expression at 500 ug/ml measured after 24 hrs in presence of topotecan by Western blot analysis; format: functional, cell-based
LNCaP [11] = experiment: Induction of apoptosis in human LNCAP cells assessed as up regulation of p21 expression at 500 ug/ml measured after 24 hrs by immunoblot analysis; format: functional, cell-based
LNCaP [12] = experiment: Up regulation of TNFRSF1OB gene expression in human LNCAP cells at 500 ug/ml measured after 24 hrs by RT profile PCR analysis relative to control; format: functional
LNCaP [13] = experiment: Induction of apoptosis in human LNCAP cells assessed as increase in caspase 9 activity at 500 ug/ml measured after 24 hrs in presence of topotecan by Ac-LEHD-pNA substrate based colorimetric assay; format: functional, cell-based
[14] = molecular target: T1, Tumor necrosis factor receptor superfamily member 6 (Homo sapiens) (UniProt P25445); experiment: Activation of FAS receptor in human LNCAP cells assessed as increase in caspase 8 activity at 500 ug/ml measured after 24 hrs by Ac-IETD-pNA substrate based colorimetric assay; format: cell-based
T1 sequence (whole entry): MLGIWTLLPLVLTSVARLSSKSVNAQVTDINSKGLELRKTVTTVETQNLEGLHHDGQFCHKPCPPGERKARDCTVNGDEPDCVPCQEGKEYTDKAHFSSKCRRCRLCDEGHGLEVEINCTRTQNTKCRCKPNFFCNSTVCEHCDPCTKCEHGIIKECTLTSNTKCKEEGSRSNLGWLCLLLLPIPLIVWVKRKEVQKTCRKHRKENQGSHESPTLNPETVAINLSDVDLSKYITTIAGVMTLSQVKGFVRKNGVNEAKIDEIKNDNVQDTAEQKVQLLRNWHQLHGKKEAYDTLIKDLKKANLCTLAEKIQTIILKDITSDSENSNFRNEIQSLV

LNCaP [15] = experiment: Induction of apoptosis in human LNCAP cells assessed as down regulation of Mcl-1 expression at 500 ug/ml measured after 24 hrs by Western blot analysis; format: functional, cell-based
LNCaP [16] = experiment: Induction of apoptosis in human LNCAP cells assessed as increase in caspase 3 activity at 500 ug/ml measured after 24 hrs by Ac-DEVD-pNA substrate based colorimetric assay; format: functional, cell-based
LNCaP [17] = experiment: Induction of DNA fragmentation in human LNCAP cells at 500 ug/ml measured after 24 hrs by agarose gel electrophoresis; format: functional, cell-based
LNCaP [18] = experiment: Induction of apoptosis in human LNCAP cells assessed as decrease in uncleaved PARP expression at 500 ug/ml measured after 24 hrs by Western blot analysis; format: functional, cell-based
LNCaP [19] = experiment: Induction of apoptosis in human LNCAP cells assessed as up regulation of cleaved caspase 3 expression at 500 ug/ml measured after 24 hrs in presence of topotecan by Western blot analysis; format: functional, cell-based
[20] = Drug uptake in cytoplasm of human LNCAP cells at 250 to 500 ug/ml incubated for 12 hrs followed by 3 times washout by fluorescence microscopic analysis; format: ADME, subcellular
LNCaP [21] = experiment: Induction of apoptosis in human LNCAP cells assessed as up regulation of p21 expression at 500 ug/ml measured after 24 hrs in presence of topotecan by immunoblot analysis; format: functional, cell-based
LNCaP [22] = experiment: Induction of apoptosis in human LNCAP cells assessed as Bax/Bcl2 ratio at 500 ug/ml measured after 24 hrs in presence of topotecan by Western blot analysis; format: functional
LNCaP [23] = experiment: Induction of apoptosis in human LNCAP cells assessed as down regulation of Bcl2 expression at 500 ug/ml measured after 24 hrs by Western blot analysis; format: functional, cell-based
LNCaP [24] = experiment: Induction of apoptosis in human LNCAP cells assessed as up regulation of p53 expression at 500 ug/ml measured after 24 hrs by immunoblot analysis; format: functional, cell-based
LNCaP [25] = experiment: Up regulation of BAG1 gene expression in human LNCAP cells at 500 ug/ml measured after 24 hrs by RT profile PCR analysis relative to control; format: functional
LNCaP [26] = experiment: Induction of apoptosis in human LNCAP cells assessed as increase in caspase 3 activity at 500 ug/ml measured after 24 hrs in presence of topotecan by Ac-DEVD-pNA substrate based colorimetric assay; format: functional, cell-based
[27] = Drug uptake in plasma membrane of human LNCAP cells at 250 to 500 ug/ml incubated for 12 hrs followed by 3 times washout by fluorescence microscopic analysis; format: ADME, cell membranes
LNCaP [28] = experiment: Induction of apoptosis in human LNCAP cells assessed as increase in cleaved PARP expression at 500 ug/ml measured after 24 hrs by western blot analysis; format: functional, cell-based
LNCaP [29] = experiment: Induction of apoptosis in human LNCAP cells assessed as up regulation of cleaved caspase 3 expression at 500 ug/ml measured after 24 hrs by Western blot analysis; format: functional, cell-based
LNCaP [30] = experiment: Up regulation of CASP8 gene expression in human LNCAP cells at 500 ug/ml measured after 24 hrs by RT profile PCR analysis relative to control; format: functional
LNCaP [31] = experiment: Down regulation of IGF1R gene expression in human LNCAP cells at 500 ug/ml measured after 24 hrs by RT profile PCR analysis relative to control; format: functional
LNCaP [32] = experiment: Induction of apoptosis in human LNCAP cells assessed as increase in FAS expression at 500 ug/ml measured after 24 hrs by Western blot analysis; format: functional, cell-based
LNCaP [33] = experiment: Induction of apoptosis in human LNCAP cells assessed as up regulation of pro-apoptotic protein Apaf-1 expression at 500 ug/ml measured after 24 hrs by Western blot analysis; format: functional, cell-based
LNCaP [34] = experiment: Induction of apoptosis in human LNCAP cells assessed as down regulation of Bcl2 expression at 500 ug/ml measured after 24 hrs in presence of topotecan by Western blot analysis; format: functional, cell-based
LNCaP [35] = experiment: Cytotoxicity against human LNCAP cells assessed as reduction in cell viability at 500 ug/ml measured after 24 hrs in presence of topotecan by trypan blue dye exclusion test relative to control; format: functional
LNCaP [36] = experiment: Up regulation of FAS gene expression in human LNCAP cells at 500 ug/ml measured after 24 hrs by RT profile PCR analysis relative to control; format: functional
LNCaP [37] = experiment: Down regulation of BIRC5 gene expression in human LNCAP cells at 500 ug/ml measured after 24 hrs by RT profile PCR analysis relative to control; format: functional
[38] = molecular target: T1, Tumor necrosis factor receptor superfamily member 6 (Homo sapiens); experiment: Activation of FAS receptor in human LNCAP cells assessed as increase in caspase 8 activity at 500 ug/ml measured after 24 hrs in presence of topotecan by Ac-IETD-pNA substrate based colorimetric assay; format: cell-based
LNCaP [39] = experiment: Induction of apoptosis in human LNCAP cells assessed as Bax/Bcl2 ratio at 500 ug/ml measured after 24 hrs by Western blot analysis; format: functional
LNCaP [40] = experiment: Up regulation of GADD45A gene expression in human LNCAP cells at 500 ug/ml measured after 24 hrs by RT profile PCR analysis relative to control; format: functional
LNCaP [41] = experiment: Induction of apoptosis in 3 hrs FAS inhibitor KP7-6 treated human LNCAP cells assessed as increase in caspase 8 activity at 500 ug/ml measured after 24 hrs by Ac-IETD-pNA substrate based colorimetric assay; format: functional, cell-based
[42] = Drug uptake in plasma membrane of human LNCAP cells at 250 to 500 ug/mL incubated for 12 hrs followed by single washout by fluorescence microscopic analysis; format: ADME, cell membranes
LNCaP [43] = experiment: Induction of apoptosis in human LNCAP cells assessed as up regulation of pro-apoptotic protein Bax expression at 500 ug/ml measured after 24 hrs in presence of topotecan by Western blot analysis; format: functional, cell-based
LNCaP [44] = experiment: Up regulation of BAX gene expression in human LNCAP cells at 500 ug/ml measured after 24 hrs by RT profile PCR analysis relative to control; format: functional
LNCaP [45] = experiment: Cytotoxicity against human LNCAP cells assessed as reduction in cell viability at 500 ug/mL after 24 hrs by trypan blue dye exclusion assay; format: functional, cell-based
LNCaP [46] = experiment: Induction of apoptosis against human LNCAP cells assessed as down regulation of survivin expression at 500 ug/ml measured after 24 hrs by Western blot analysis; format: functional, cell-based
LNCaP [47] = experiment: Induction of DNA fragmentation in human LNCAP cells at 500 ug/ml measured after 24 hrs in presence of topotecan by agarose gel electrophoresis; format: functional, cell-based
LNCaP [48] = experiment: Up regulation of TP73 gene expression in human LNCAP cells at 500 ug/ml measured after 24 hrs by RT profile PCR analysis relative to control; format: functional
LNCaP [49] = experiment: Induction of apoptosis in human LNCAP cells assessed as up regulation of p53 expression at 500 ug/ml measured after 24 hrs in presence of topotecan by immunoblot analysis; format: functional, cell-based
LNCaP [50] = experiment: Up regulation of TNFRSF1B gene expression in human LNCAP cells at 500 ug/ml measured after 24 hrs by RT profile PCR analysis relative to control; format: functional
LNCaP [51] = experiment: Induction of apoptosis in human LNCAP cells assessed as down regulation of survivin expression at 500 ug/ml measured after 24 hrs in presence of topotecan by Western blot analysis; format: functional, cell-based

Compound: C/C=C1/C(=C\c2[nH]c(/C=C3N=C(/C=C4/NC(=O)C(CC)=C4C)C(C)=C/3CCC(=O)O)c(CCC(=O)O)c2C)NC(=O)C1C (stereo unspecified)
- fold change (FC) (LNCaP [1]): 0.45
- Activity (LNCaP [2]): Active
- Activity (LNCaP [3]): Active
- Drug uptake [4]: Not Active
- fold change (FC) (LNCaP [5]): 2.33
- Activity (LNCaP [6]): Active
- Activity (LNCaP [7]): Active
- Activity (LNCaP [8]): Active
- fold change (FC) (LNCaP [9]): 0.56
- Activity (LNCaP [10]): Active
- Activity (LNCaP [11]): Active
- fold change (FC) (LNCaP [12]): 2.72
- Activity (LNCaP [13]): Active
- Activity [14]: Active
- Activity (LNCaP [15]): Active
- Activity (LNCaP [16]): Active
- Activity (LNCaP [17]): Active
- Activity (LNCaP [18]): Active
- Activity (LNCaP [19]): Active
- Drug uptake [20]: Not Active
- Activity (LNCaP [21]): Active
- Ratio (LNCaP [22]): >3.5
- Activity (LNCaP [23]): Active
- Activity (LNCaP [24]): Active
- fold change (FC) (LNCaP [25]): 1.76
- Activity (LNCaP [26]): Active
- Drug uptake [27]: Active
- Activity (LNCaP [28]): Active
- Activity (LNCaP [29]): Active
- fold change (FC) (LNCaP [30]): 1.2
- fold change (FC) (LNCaP [31]): 0.47
- Activity (LNCaP [32]): Active
- Activity (LNCaP [33]): Active
- Activity (LNCaP [34]): Active
- Activity (LNCaP [35]): >65%
- fold change (FC) (LNCaP [36]): 5.34
- fold change (FC) (LNCaP [37]): 0.009
- Activity [38]: Active
- Ratio (LNCaP [39]): >1.5
- fold change (FC) (LNCaP [40]): 6.01
- Activity (LNCaP [41]): inactive
- Drug uptake [42]: Active
- Activity (LNCaP [43]): Active
- fold change (FC) (LNCaP [44]): 3.84
- Activity (LNCaP [45]): Active
- Activity (LNCaP [46]): Active
- Activity (LNCaP [47]): Active
- fold change (FC) (LNCaP [48]): 2.23
- Activity (LNCaP [49]): Active
- fold change (FC) (LNCaP [50]): 1.67
- Activity (LNCaP [51]): Active
